Data: PMC11410929, “Biochemical and crystallographic studies of L,D-transpeptidase 2 from Mycobacterium tuberculosis with its natural monomer substrate” (Communications Biology, 2024)
Where two headings read alike, the source gives them in different places. *1 amine or outer side, *2 acyl side, *3 side chain or, on linkers, in order; H or OH if unused. Where a SMILES comes first, the peptide text is derived from it. [ ]: non-standard residue; d: D form. d(γGlu) = O=C(O)[C@@H](CCC(=O)[*:2])N[*:1]

Assays:
LdtMt2 [1] = target: T1, LdtMt2 (Mycobacterium tuberculosis, UniProt I6Y9J2); experiment: biochemical; type: binding; conditions: for ΔTm at 500 µM: pH 7.5, read-out: Shift in melting temperature compared to unmodified LdtMt2, 500 µM; for ΔTm at 1000 µM: pH 7.5, read-out: Shift in melting temperature compared to unmodified LdtMt2, 1 mM; for Shift in melting temperature compared to unmodified LdtMt2, 500 µM / Shift in melting temperature compared to unmodified LdtMt2, 1 mM / Tm 500 µM / Tm 1 mM: pH 7.5
Protocol: Differential scanning fluorometric thermal shift assays[32]
LdtMt2 (5 µM) was incubated with peptidoglycan fragments (500 µM or 1 mM) in buffer (50 mM tris pH 7.5) for 30 minutes at room temperature, after which time SYPRO Orange (final concentration 6x, according to manufacturer’s definition, Invitrogen) was added. Melting temperatures […]
See Methods for experimental details.
Table S1. […] The melting

LdtMt2 [2] = target: T1, LdtMt2; experiment: biochemical; type: biochemical
DAAO and HRP = experiment: Transpeptidase interference assay (no LdtMt2, D-Ala as substrate); type: biochemical; conditions: for Transpeptidase interference assay pIC50 (mean ± SD): DAAO 2 U/mL, HRP 2 U/mL, FAD 40 µM, Amplex red 10 µM, 30 min rt, then D-alanine 500 nM, pH 8.0, quadruplicate
Protocol: The transpeptidase interference assay was performed as described above, with the modification that the LdtMt2 mixture was replaced by 5 µL assay buffer, and the substrate was replaced by D-Ala (500 nM final concentration). Data were analysed using Prism 10 (GraphPad).
Figure S14. Dose-response curves of the transpeptidase interference assay with compounds
14-24. The specified inhibitors were incubated with DAAO (2 U/mL), HRP (2 U/mL), FAD (40 μM) and
Amplex red (10 μM) in 50 mM sodium phosphate pH 8.0 with 100 mM NaCl at room temperature for 30
minutes, after which time D-alanine (500 nM) was added. The pIC50 values and compound structures
See Methods for experimental details. Individual data points are shown.

LdtMt2 [3] = target: T1, LdtMt2; conditions: thiol-reactive fluorescent probe assay; quadruplicate; ref 6,7 (supplement); cited from earlier work
LdtMt2 [4] = target: T1, LdtMt2; type: biochemical; conditions: pH 7.5
LdtMt2 [5] = target: T1, LdtMt2; conditions: pH 7.5
LdtMt2 [6] = target: T1, LdtMt2; conditions: pH 8
LdtMt2 [7] = target: T1, LdtMt2; conditions: cited from earlier work
[8] = LdtMt2 500 nM, 30 min preincubation rt, substrate 1 35 µM, pH 8.0, 37 °C, n=3, read-out: pIC50, LdtMt2 inhibition by non-substrate peptidoglycan fragments (converted)

T1 sequence (I6Y9J2 56-408): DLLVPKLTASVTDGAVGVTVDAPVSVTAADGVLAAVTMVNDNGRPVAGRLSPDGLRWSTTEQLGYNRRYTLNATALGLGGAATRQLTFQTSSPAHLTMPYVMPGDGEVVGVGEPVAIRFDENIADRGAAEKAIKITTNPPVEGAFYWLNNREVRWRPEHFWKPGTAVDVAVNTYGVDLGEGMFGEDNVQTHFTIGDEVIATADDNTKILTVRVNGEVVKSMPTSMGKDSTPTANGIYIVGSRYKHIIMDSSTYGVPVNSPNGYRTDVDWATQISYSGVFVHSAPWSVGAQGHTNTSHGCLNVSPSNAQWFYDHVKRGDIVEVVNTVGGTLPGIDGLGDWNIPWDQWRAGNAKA

With C[C@H](N)C(=O)N[C@H](CCC(=O)N[C@@H](CCCCN)C(=O)N[C@H](C)C(=O)N[C@H](C)C(=O)O)C(=O)O [Compound 8, L-Ala-D-iGlu-L-Lys-D-Ala-D-Ala, reference compound] the ΔTm at 500 µM (LdtMt2 [1]) was 1.5 °C, the ΔTm at 1000 µM (LdtMt2 [1]) was 2 °C and the IC50 (LdtMt2 [2]; [8]) was 15.8 µM.
C[C@H](N)C(=O)N[C@H](CCC(=O)N[C@@H](CCCCN)C(=O)N[C@H](C)C(=O)O)C(=O)O [Compound 10, L-Ala-D-iGlu-L-Lys-D-Ala, reference compound] (H-A[d(γGlu)]K[dA]-OH) gave a ΔTm at 500 µM (LdtMt2 [1]) of 1.5 °C, a ΔTm at 1000 µM (LdtMt2 [1]) of 3 °C and an IC50 (LdtMt2 [2]; [8]) of 15.8 µM.
With C[C@H](N)C(=O)N[C@H](CCC(=O)N[C@@H](CCC[C@@H](N)C(=O)O)C(=O)O)C(=O)O [Compound 12, reference compound] the ΔTm at 500 µM (LdtMt2 [1]) was 0.5 °C and the ΔTm at 1000 µM (LdtMt2 [1]) was 1 °C.
With N[C@H](CCC[C@H](NC(=O)CC[C@@H](N)C(=O)O)C(=O)O)C(=O)O [Compound 13, D-γ-Glu-m-DAP, reference compound] the ΔTm at 500 µM (LdtMt2 [1]) was 1 °C and the ΔTm at 1000 µM (LdtMt2 [1]) was 1.5 °C.
In the case of C[C@@H](O)[C@H]1C(=O)N2C(C(=O)O)=C(S[C@@H]3CN[C@H](C(=O)N(C)C)C3)[C@H](C)[C@H]12 [Compound 14, Meropenem], the IC50 (LdtMt2 [2]; LdtMt2 500 nM, 30 min preincubation rt, substrate 1 35 µM, 50 mM sodium phosphate pH 8.0, 100 mM NaCl, 37 °C, quadruplicate, read-out: Transpeptidase activity assay pIC50 (mean ± SD) (converted)) is listed as 0.631 µM, the “Transpeptidase interference assay pIC50 (mean ± SD)” value (DAAO and HRP) is listed as under 4.0 and the “Fluorogenic probe assay pIC50 (mean ± SD)” value (LdtMt2 [3]) is listed as 5.9 ± 0.04.
For C[C@@H](O)[C@H]1C(=O)N2C(C(=O)O)=C([C@H]3CCCO3)S[C@H]12 [Compound 15, Faropenem], the “Transpeptidase interference assay pIC50 (mean ± SD)” value (DAAO and HRP) was under 4.0.
For O=c1c2ccccc2[se]n1-c1ccccc1 [Compound 24, Ebselen], the “Transpeptidase activity assay pIC50 (mean ± SD)” value (LdtMt2 [2]; LdtMt2 500 nM, 30 min preincubation rt, substrate 1 35 µM, 50 mM sodium phosphate pH 8.0, 100 mM NaCl, 37 °C, quadruplicate) was 6.8 ± 0.2, the “Transpeptidase interference assay pIC50 (mean ± SD)” value (DAAO and HRP) was 5.0 ± 0.4 and the “Interference with the DAAO/HRP assay” value (DAAO and HRP; inhibition of DAAO and HRP, in words) was “cause interference”. For the same compound, the “Fluorogenic probe assay pIC50 (mean ± SD)” value (LdtMt2 [3]) was 6.7 ± 0.04.
In the case of “GlcNAc-MurNAc-L-Ala-D-iGluNH2-m-DAPNH2-D-Ala [Compound 1]”, the “LdtMt2 turnover / transpeptidase product formation (LC-MS)” value (LdtMt2 [4]) is reported as “led to formation of products”, the “Shift in melting temperature compared to unmodified LdtMt2, 500 µM” value (LdtMt2 [1]) is reported as “+1.5 °C” and the “Shift in melting temperature compared to unmodified LdtMt2, 1 mM” value (“Shift in melting temperature … 1 mM” for short) (LdtMt2 [1]) is reported as “+2.0 °C”. For the same compound, the “Tm 500 µM” value (LdtMt2 [1]) was 45 °C, the “Tm 1 mM” value (LdtMt2 [1]) was 45.5 °C and the “Covalent adducts of LdtMt2 (SPE-MS)” value (LdtMt2 [5]) was “no covalent adducts of LdtMt2 were observed”. The Reaction rate (LdtMt2 [6]) was 120.0 ± 1.7 RFU min^−1 and the Vmax (LdtMt2 [6]) was “Ambiguous”.
For “GlcNAc-MurNAc-L-Ala-D-iGluNH2-m-DAPNH2-D-Ala-D-Ala [Compound 4]”, the “LdtMt2 turnover / transpeptidase product formation (LC-MS)” value (LdtMt2 [4]) was “did not manifest evidence for reaction”, the “Shift in melting temperature … 1 mM” value (LdtMt2 [1]) was “+2.5 °C” and the “Tm 500 µM” value (LdtMt2 [1]) was 45.5 °C. The “Tm 1 mM” value (LdtMt2 [1]) was 46 °C and the “LdtMt2 inhibition by non-substrate peptidoglycan fragments, in words” value (LdtMt2 [2]; pH 8) was “modest LdtMt2 inhibition”.
With “GlcNAc-Muramitol-L-Ala-D-iGluNH2-m-DAPNH2-D-Ala [Compound 2]” the “LdtMt2 turnover / transpeptidase product formation (LC-MS)” value (LdtMt2 [4]) was “led to formation of products”.
In the case of “GlcNAc-muramitol-L-Ala-D-iGluNH2-m-DAPNH2-D-Ala-D-Ala [reduced pentapeptide monomer of Mtb]”, the “LdtMt2 substrate or not” value (LdtMt2 [7]) is given as “is not an LdtMt2 substrate”.
With “L-Ala-D-iGluNH2-L-Lys-D-Ala [Compound 11]” the “LdtMt2 turnover / transpeptidase product formation (LC-MS)” value (LdtMt2 [4]) was “is not a substrate for LdtMt2”.
For “lactoyl-L-Ala-D-iGluNH2-m-DAPNH2-D-Ala [Compound 3]”, the “LdtMt2 turnover / transpeptidase product formation (LC-MS)” value (LdtMt2 [4]) was “led to formation of products”, the “Shift in melting temperature compared to unmodified LdtMt2, 500 µM” value (LdtMt2 [1]) was “+1.5 °C” and the “Shift in melting temperature … 1 mM” value (LdtMt2 [1]) was “+2.0 °C”. For the same compound, the “Tm 500 µM” value (LdtMt2 [1]) was 45 °C, the “Tm 1 mM” value (LdtMt2 [1]) was 45.5 °C and the “Covalent adducts of LdtMt2 (SPE-MS)” value (LdtMt2 [5]) was “no covalent adducts of LdtMt2 were observed”. For the same compound, the Km (LdtMt2 [6]) was 6.2 mM, the Reaction rate (LdtMt2 [6]) was 224.2 ± 2.6 RFU min^−1 and the Vmax (LdtMt2 [6]) was 1.4 ± 0.5. For the same compound, the kcat (LdtMt2 [6]) was 2.6 ± 0.9, the kcat/KM (LdtMt2 [6]) was 0.07 M⁻¹ s⁻¹ and the kcat/Km (LdtMt2 [6]) was 0.07 M⁻¹ s⁻¹.
